In patent US6403600B1, “Methoximinophenylacetic acid amides” (Bayer Aktiengesellschaft, priority 1998, dated 2002):

Test: logP determination by HPLC (EEC-Directive 79/831 Annex V. A8)
Format: physicochemical
Conditions: gradient method, acetonitrile/0.1% aqueous phosphoric acid

Structure (SMILES) | logP
CON=C(C(=O)N(C)SC(F)(Cl)Cl)c1ccccc1Oc1ncnc(Oc2cccc(Cl)c2C)c1F [Example 86] | 5.59
CON=C(C(=O)N(C)SC(F)(Cl)Cl)c1ccccc1Oc1ncnc(Oc2cccc(C=O)c2Cl)c1F [Example 87] | 4.72
CON=C(C(=O)N(C)SC(F)(Cl)Cl)c1ccccc1Oc1ncnc(Oc2ccccc2)c1F [Example 88] | 4.76
CON=C(C(=O)N(C)SC(F)(Cl)Cl)c1ccccc1Oc1ncnc(Oc2ccccc2C)c1F [Example 89] | 5.05
CON=C(C(=O)N(C)SC(F)(Cl)Cl)c1ccccc1Oc1ncnc(Oc2ccc(C)cc2C)c1F [Example 90] | 5.41
CON=C(C(=O)N(C)SC(F)(Cl)Cl)c1ccccc1Oc1ncnc(Oc2cccc(Cl)c2Cl)c1F [Example 91] | 5.46
CON=C(C(=O)N(C)SC(F)(Cl)Cl)c1ccccc1Oc1ncnc(Oc2cccc(C)c2C)c1F [Example 92] | 5.34
CON=C(C(=O)N(C)SC(F)(Cl)Cl)c1ccccc1Oc1ncnc(Oc2ccccc2OC(F)(F)F)c1F [Example 93] | 5.2
CON=C(C(=O)N(C)SC(F)(Cl)Cl)c1ccccc1Oc1ncnc(Oc2ccccc2OC(F)F)c1F [Example 94] | 4.7
CCSCc1ccccc1Oc1ncnc(Oc2ccccc2C(=NOC)C(=O)N(C)SC(F)(Cl)Cl)c1F [Example 95] | 5.36
CON=C(C(=O)N(C)SC(F)(Cl)Cl)c1ccccc1Oc1ncnc(Oc2cccc3c2OC(C)(C)C3)c1F [Example 96] | 5.27
CON=C(C(=O)N(C)SC(F)(Cl)Cl)c1ccccc1Oc1ncnc(Oc2c(C)cccc2C)c1F [Example 97] | 5.4
CN(SC(F)(Cl)Cl)C(=O)C(=NOCF)c1ccccc1Oc1ncnc(Oc2ccccc2Cl)c1F [Example 98] | 4.84
CON=C(C(=O)N(C)SC(F)(Cl)Cl)c1ccccc1Oc1ncnc(Oc2ccc(OC(F)(F)F)cc2Cl)c1F [Example 99] | 5.08
CON=Cc1cccc(Oc2ncnc(Oc3ccccc3C(=NOC)C(=O)N(C)SC(F)(Cl)Cl)c2F)c1 [Example 100] | 5.81
CON=C(C(=O)N(C)SC(F)(Cl)Cl)c1ccccc1Oc1ncnc(Oc2cccc(Br)c2)c1F [Example 101] | 5.39
CON=C(C(=O)N(C)SC(F)(Cl)Cl)c1ccccc1Oc1ncnc(Oc2ccc(Cl)cc2Cl)c1F [Example 102] | 5.76
CON=C(C(=O)N(C)SC(F)(Cl)Cl)c1ccccc1Oc1ncnc(Oc2cc(Cl)cc(Cl)c2)c1F [Example 103] | 5.71
CON=C(C(=O)N(C)SC(F)(Cl)Cl)c1ccccc1Oc1ncnc(Oc2ccc(Br)cc2)c1F [Example 104] | 5.19
CON=C(C(=O)N(C)SC(F)(Cl)Cl)c1ccccc1Oc1ncnc(Oc2ccccc2F)c1F [Example 105] | 4.73
CON=C(C(=O)N(C)SC(F)(Cl)Cl)c1ccccc1Oc1ncnc(Oc2cccc(C(F)(F)F)c2)c1F [Example 106] | 5.11
CON=C(C(=O)N(C)SC(F)(Cl)Cl)c1ccccc1Oc1ncnc(Oc2ccc(C#N)cc2)c1F [Example 107] | 4.34
CON=C(C(=O)N(C)SC(F)(Cl)Cl)c1ccccc1Oc1ncnc(Oc2ccc(OC)cc2)c1F [Example 108] | 4.63
CCc1ccccc1Oc1ncnc(Oc2ccccc2C(=NOC)C(=O)N(C)SC(F)(Cl)Cl)c1F [Example 109] | 5.25
CCOc1ccccc1Oc1ncnc(Oc2ccccc2C(=NOC)C(=O)N(C)SC(F)(Cl)Cl)c1F [Example 110] | 4.86
CON=C(C(=O)N(C)SC(F)(Cl)Cl)c1ccccc1Oc1ncnc(Oc2ccccc2C(C)(C)C)c1F [Example 111] | 5.73

Structure (SMILES) | logP
CON=C(C(=O)N(C)SC(F)(Cl)Cl)c1ccccc1Oc1ncnc(Oc2ccc(C(F)(F)F)cc2OC)c1F [Example 112] | 5.16
CON=C(C(=O)N(C)SC(F)(Cl)Cl)c1ccccc1Oc1ncnc(Oc2cccc(C)c2[N+](=O)[O-])c1F [Example 113] | 4.71
CON=C(C(=O)N(C)SC(F)(Cl)Cl)c1ccccc1Oc1ncnc(Oc2ccc(F)cc2Cl)c1F [Example 114] | 5.14
CON=C(C(=O)N(C)SC(F)(Cl)Cl)c1ccccc1Oc1ncnc(Oc2ccc(Cl)c(Cl)c2)c1F [Example 115] | 5.58
CON=C(C(=O)N(C)SC(F)(Cl)Cl)c1ccccc1Oc1ncnc(Oc2ccc(F)cc2F)c1F [Example 116] | 4.85
CON=C(C(=O)N(C)SC(F)(Cl)Cl)c1ccccc1Oc1ncnc(Oc2cccc(Cl)c2)c1F [Example 117] | 5.14
CON=C(C(=O)N(C)SC(F)(Cl)Cl)c1ccccc1Oc1ncnc(Oc2cccc(F)c2)c1F [Example 118] | 4.76
CON=C(C(=O)N(C)SC(F)(Cl)Cl)c1ccccc1Oc1ncnc(Oc2ccccc2C#N)c1F [Example 119] | 4.28
CON=C(C(=O)N(C)SC(F)(Cl)Cl)c1ccccc1Oc1ncnc(Oc2ccc(C)cc2)c1F [Example 120] | 5.02
CON=C(C(=O)N(C)SC(F)(Cl)Cl)c1ccccc1Oc1ncnc(Oc2cc(C)ccc2C)c1F [Example 121] | 5.34
C=CCc1ccccc1Oc1ncnc(Oc2ccccc2C(=NOC)C(=O)N(C)SC(F)(Cl)Cl)c1F [Example 122] | 5.3
CON=C(C(=O)N(C)SC(F)(Cl)Cl)c1ccccc1Oc1ncnc(Oc2ccccc2C(C)C)c1F [Example 123] | 5.56
CON=C(C(=O)N(C)SC(F)(Cl)Cl)c1ccccc1Oc1ncnc(Oc2cc(C)ccc2C(C)C)c1F [Example 124] | 5.88
CON=C(C(=O)N(C)SC(F)(Cl)Cl)c1ccccc1Oc1ncnc(Oc2cc(Cl)ccc2C)c1F [Example 125] | 5.46
CON=C(C(=O)N(C)SC(F)(Cl)Cl)c1ccccc1Oc1ncnc(Oc2cccc(C(F)(F)F)c2Cl)c1F [Example 126] | 5.42
CON=C(C(=O)N(C)SC(F)(Cl)Cl)c1ccccc1Oc1ncnc(Oc2ccc(I)cc2)c1F [Example 127] | 5.35
CON=C(C(=O)N(C)SC(F)(Cl)Cl)c1ccccc1Oc1ncnc(Oc2cccc(C)c2)c1F [Example 128] | 4.98
CON=C(C(=O)N(C)SC(F)(Cl)Cl)c1ccccc1Oc1ncnc(Oc2ccccc2OC)c1F [Example 129] | 4.57
CON=C(C(=O)N(C)SC(F)(Cl)Cl)c1ccccc1Oc1ncnc(Oc2cccc(OC)c2)c1F [Example 130] | 4.68
CCc1ccc(Oc2ncnc(Oc3ccccc3C(=NOC)C(=O)N(C)SC(F)(Cl)Cl)c2F)cc1 [Example 131] | 5.38
CON=C(C(=O)N(C)SC(F)(Cl)Cl)c1ccccc1Oc1ncnc(Oc2cccc(C(C)(C)C)c2)c1F [Example 132] | 5.84
CON=C(C(=O)N(C)SC(F)(Cl)Cl)c1ccccc1Oc1ncnc(Oc2ccc(OC(F)(F)F)cc2)c1F [Example 133] | 5.3
CCC(C)c1ccccc1Oc1ncnc(Oc2ccccc2C(=NOC)C(=O)N(C)SC(F)(Cl)Cl)c1F (stereo not shown) [Example 134] | 5.86
CON=C(C(=O)N(C)SC(F)(Cl)Cl)c1ccccc1Oc1ncnc(Oc2ccc(N)c(Cl)c2Cl)c1F [Example 136] | 4.68
CCc1cc(C)cc(Oc2ncnc(Oc3ccccc3C(=NOC)C(=O)N(C)SC(F)(Cl)Cl)c2F)c1 [Example 137] | 5.76
CON=C(C(=O)N(C)SC(F)(Cl)Cl)c1ccccc1Oc1ncnc(Oc2ccc(OC(F)(F)F)cc2C)c1F [Example 138] | 5.65
